# Test results taken from PubChem BioAssay AID248 (DTP/NCI, 2004).
# “And” between values parts separate entries of the source, which are not always exact repeats. Identical values can stand only once. Inconclusive results and toxic doses are left out.
# System: L1210 leukemia ip in BDF1 mice, survival T/C
# Experiment: NCI In Vivo Anticancer Drug Screen. Data for tumor model L1210 Leukemia (intraperitoneal) in B6D2F1 (BDF1) mice
# Conditions: higher = longer survival
# Procedure, shortened: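 In this screen, tumor-bearing mice given compound are compared to those given vehicle, and their survival values are reported as a treated-to-control quotient.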
# [1] = endpoint: mean survival time, dose: 200.0 mg/kg/injection, schedule: Q01DX001 (ip), vehicle: carboxymethylcellulose (CMC)
# [2] = endpoint: mean survival time, dose: 25.0 mg/kg/injection, schedule: Q04DX003 (ip), vehicle: Klucel (hydroxypropylcellulose) (HPC)
# [3] = endpoint: mean survival time, dose: 50.0 mg/kg/injection, schedule: Q04DX003 (ip), vehicle: Klucel (hydroxypropylcellulose) (HPC)
# [4] = endpoint: mean survival time, dose: 100.0 mg/kg/injection, schedule: Q04DX003 (ip), vehicle: Klucel (hydroxypropylcellulose) (HPC)
# [5] = endpoint: mean survival time, dose: 100.0 mg/kg/injection, schedule: Q01DX009 (ip), vehicle: Klucel (hydroxypropylcellulose) (HPC)
# [6] = endpoint: mean survival time, dose: 200.0 mg/kg/injection, schedule: Q01DX009 (ip), vehicle: Klucel (hydroxypropylcellulose) (HPC)
# [7] = endpoint: mean survival time, dose: 400.0 mg/kg/injection, schedule: Q01DX009 (ip), vehicle: Klucel (hydroxypropylcellulose) (HPC)
# [8] = endpoint: mean survival time, dose: 100.0 mg/kg/injection, schedule: Q01DX001 (ip), vehicle: Klucel (hydroxypropylcellulose) (HPC)
# [9] = endpoint: mean survival time, dose: 200.0 mg/kg/injection, schedule: Q01DX001 (ip), vehicle: Klucel (hydroxypropylcellulose) (HPC)
# [10] = endpoint: mean survival time, dose: 400.0 mg/kg/injection, schedule: Q01DX001 (ip), vehicle: Klucel (hydroxypropylcellulose) (HPC)
smiles,measurement,setting,value
CCC1(c2ccccc2)OC1C(=O)OCCC(C)C (centres undefined),T/C,"endpoint: mean survival time, dose: 100.0 mg/kg/injection, schedule: Q04DX002 (ip), vehicle: saline",93 % of control
same,T/C,"endpoint: mean survival time, dose: 200.0 mg/kg/injection, schedule: Q04DX002 (ip), vehicle: saline",93 % of control
same,T/C,"endpoint: mean survival time, dose: 400.0 mg/kg/injection, schedule: Q04DX002 (ip), vehicle: saline",101 % of control
CCCCN(C)/N=N/c1nc[nH]c1C(N)=O,T/C,"endpoint: mean survival time, dose: 4.0 mg/kg/injection, schedule: Q01DX009 (ip), vehicle: other",111 % of control
same,T/C,"endpoint: mean survival time, dose: 7.0 mg/kg/injection, schedule: Q01DX009 (ip), vehicle: other",111 % of control
same,T/C,"endpoint: mean survival time, dose: 12.25 mg/kg/injection, schedule: Q01DX009 (ip), vehicle: saline with Tween-80",117 % of control
same,T/C,"endpoint: mean survival time, dose: 17.6 mg/kg/injection, schedule: Q01DX009 (ip), vehicle: carboxymethylcellulose (CMC)",109 % of control
same,T/C,"endpoint: mean survival time, dose: 20.0 mg/kg/injection, schedule: Q01DX Z (ip), vehicle: carboxymethylcellulose (CMC)",124 % of control
same,T/C,"endpoint: mean survival time, dose: 26.0 mg/kg/injection, schedule: Q01DX009 (ip), vehicle: carboxymethylcellulose (CMC)",120 % of control
same,T/C,"endpoint: mean survival time, dose: 36.0 mg/kg/injection, schedule: Q01DX009 (ip), vehicle: other",168 % of control
same,T/C,"endpoint: mean survival time, dose: 36.7 mg/kg/injection, schedule: Q04DX003 (ip), vehicle: saline with Tween-80",117 % of control
same,T/C,"endpoint: mean survival time, dose: 40.0 mg/kg/injection, schedule: Q01DX009 (ip), vehicle: carboxymethylcellulose (CMC)",124 % of control
same,T/C,"endpoint: mean survival time, dose: 40.0 mg/kg/injection, schedule: Q01DX Z (ip), vehicle: carboxymethylcellulose (CMC)",164 % of control
same,T/C,"endpoint: mean survival time, dose: 49.0 mg/kg/injection, schedule: Q01DX009 (ip), vehicle: saline with Tween-80",153 % of control
same,T/C,"endpoint: mean survival time, dose: 53.0 mg/kg/injection, schedule: Q01DX001 (ip), vehicle: saline with Tween-80",107 % of control
same,T/C,"endpoint: mean survival time, dose: 60.0 mg/kg/injection, schedule: Q01DX009 (ip), vehicle: other",154 % of control
same,T/C,"endpoint: mean survival time, dose: 73.5 mg/kg/injection, schedule: Q04DX003 (ip), vehicle: saline with Tween-80",122 % of control
same,T/C,"endpoint: mean survival time, dose: 80.0 mg/kg/injection, schedule: Q01DX Z (ip), vehicle: carboxymethylcellulose (CMC)",158 % of control
same,T/C,"endpoint: mean survival time, dose: 88.0 mg/kg/injection, schedule: Q01DX001 (ip), vehicle: carboxymethylcellulose (CMC)",103 % of control
same,T/C,"endpoint: mean survival time, dose: 88.0 mg/kg/injection, schedule: Q01DX001 (ip), vehicle: other",121 % of control
same,T/C,"endpoint: mean survival time, dose: 100.0 mg/kg/injection, schedule: Q01DX001 (ip), vehicle: other",119 % of control
same,T/C,"endpoint: mean survival time, dose: 100.0 mg/kg/injection, schedule: Q01DX009 (ip), vehicle: other",90 % of control
same,T/C,"endpoint: mean survival time, dose: 106.0 mg/kg/injection, schedule: Q01DX001 (ip), vehicle: saline with Tween-80",119 % of control
same,T/C,"endpoint: mean survival time, dose: 120.0 mg/kg/injection, schedule: Q01DX Z (ip), vehicle: carboxymethylcellulose (CMC)",101 % of control
same,T/C,"endpoint: mean survival time, dose: 133.0 mg/kg/injection, schedule: Q01DX001 (ip), vehicle: carboxymethylcellulose (CMC)",103 % of control
same,T/C,"endpoint: mean survival time, dose: 147.0 mg/kg/injection, schedule: Q04DX003 (ip), vehicle: saline with Tween-80",153 % of control
same,T/C,"endpoint: mean survival time, dose: 160.0 mg/kg/injection, schedule: Q01DX009 (ip), vehicle: carboxymethylcellulose (CMC)",98 % of control
same,T/C,[1],106 % of control
same,T/C,"endpoint: mean survival time, dose: 400.0 mg/kg/injection, schedule: Q01DX001 (ip), vehicle: other",122 % of control
same,T/C,"endpoint: median survival time, dose: 10.0 mg/kg/injection, schedule: Q01DX009 (ip), vehicle: steriod suspending solution",116 % of control
same,T/C,"endpoint: median survival time, dose: 20.0 mg/kg/injection, schedule: Q01DX009 (ip), vehicle: steriod suspending solution",122 % of control
same,T/C,"endpoint: median survival time, dose: 40.0 mg/kg/injection, schedule: Q01DX009 (ip), vehicle: steriod suspending solution",150 % of control and 155 % of control
same,T/C,"endpoint: median survival time, dose: 80.0 mg/kg/injection, schedule: Q01DX009 (ip), vehicle: steriod suspending solution",155 % of control and 166 % of control
same,T/C,"endpoint: median survival time, dose: 160.0 mg/kg/injection, schedule: Q01DX009 (ip), vehicle: steriod suspending solution",100 % of control
Nc1nc(N)c(-c2ccc(Cl)c(Cl)c2)c(CBr)n1,T/C,"endpoint: mean survival time, dose: 1.56 mg/kg/injection, schedule: Q01DX009 (ip), vehicle: saline with Tween-80",101 % of control
same,T/C,"endpoint: mean survival time, dose: 3.13 mg/kg/injection, schedule: Q01DX009 (ip), vehicle: saline with Tween-80",101 % of control and 92 % of control
same,T/C,"endpoint: mean survival time, dose: 6.25 mg/kg/injection, schedule: Q01DX009 (ip), vehicle: saline with Tween-80",102 % of control
same,T/C,"endpoint: mean survival time, dose: 12.5 mg/kg/injection, schedule: Q01DX009 (ip), vehicle: saline with Tween-80",99 % of control and 101 % of control
same,T/C,"endpoint: mean survival time, dose: 12.5 mg/kg/injection, schedule: Q04DX003 (ip), vehicle: Klucel (hydroxypropylcellulose) (HPC)",90 % of control
same,T/C,[2],113 % of control
same,T/C,[3],87 % of control
same,T/C,[4],87 % of control
Cc1cccc(Cl)c1OCC(=O)Nc1ccccc1,T/C,"endpoint: mean survival time, dose: 100.0 mg/kg/injection, schedule: Q04DX002 (ip), vehicle: saline with Tween-80",101 % of control
same,T/C,"endpoint: mean survival time, dose: 200.0 mg/kg/injection, schedule: Q04DX002 (ip), vehicle: saline with Tween-80",104 % of control
O=C(NC1CCCCC1)Oc1cccc(NC(=S)Nc2ccccc2)c1,T/C,[5],100 % of control
same,T/C,[6],97 % of control
same,T/C,[7],92 % of control
OCC1(Br)CCC(Br)(CO)CC1 (centres undefined),T/C,"endpoint: mean survival time, dose: 100.0 mg/kg/injection, schedule: Q04DX002 (ip), vehicle: Klucel (hydroxypropylcellulose) (HPC)",103 % of control
same,T/C,"endpoint: mean survival time, dose: 100.0 mg/kg/injection, schedule: Q04DX003 (ip), vehicle: saline with Tween-80",104 % of control
same,T/C,"endpoint: mean survival time, dose: 200.0 mg/kg/injection, schedule: Q04DX002 (ip), vehicle: Klucel (hydroxypropylcellulose) (HPC)",111 % of control
same,T/C,"endpoint: mean survival time, dose: 200.0 mg/kg/injection, schedule: Q04DX003 (ip), vehicle: saline with Tween-80",98 % of control
same,T/C,"endpoint: mean survival time, dose: 400.0 mg/kg/injection, schedule: Q04DX002 (ip), vehicle: Klucel (hydroxypropylcellulose) (HPC)",107 % of control
same,T/C,"endpoint: mean survival time, dose: 400.0 mg/kg/injection, schedule: Q04DX003 (ip), vehicle: saline with Tween-80",96 % of control
CC1CCN(C(=O)Nc2cccc(C(F)(F)F)c2)CC1,T/C,"endpoint: mean survival time, dose: 100.0 mg/kg/injection, schedule: Q01DX009 (ip), vehicle: saline with Tween-80",94 % of control
same,T/C,"endpoint: mean survival time, dose: 200.0 mg/kg/injection, schedule: Q01DX009 (ip), vehicle: saline with Tween-80",97 % of control
same,T/C,"endpoint: mean survival time, dose: 400.0 mg/kg/injection, schedule: Q01DX009 (ip), vehicle: saline with Tween-80",91 % of control
CCC[CH2][Ge]([Cl])([Cl])[CH2]CCC,T/C,"endpoint: mean survival time, dose: 25.0 mg/kg/injection, schedule: Q01DX009 (ip), vehicle: Klucel (hydroxypropylcellulose) (HPC)",89 % of control
same,T/C,[2],93 % of control
same,T/C,"endpoint: mean survival time, dose: 50.0 mg/kg/injection, schedule: Q01DX009 (ip), vehicle: Klucel (hydroxypropylcellulose) (HPC)",94 % of control
same,T/C,[3],96 % of control
same,T/C,[4],106 % of control
CC(=O)OC1CC2(O)C3CCC4CC(O)CCC4(C)C3CCC2(C)C1c1ccc(=O)oc1 (centres undefined),T/C,"endpoint: mean survival time, dose: 100.0 mg/kg/injection, schedule: Q01DX001 (sc), vehicle: steriod suspending solution",107 % of control
same,T/C,"endpoint: mean survival time, dose: 200.0 mg/kg/injection, schedule: Q01DX001 (sc), vehicle: steriod suspending solution",101 % of control
same,T/C,"endpoint: mean survival time, dose: 400.0 mg/kg/injection, schedule: Q01DX001 (sc), vehicle: steriod suspending solution",107 % of control
Cc1ccc(N=Cc2ccc3c(c2)OCO3)cc1,T/C,[8],100 % of control
same,T/C,[5],91 % of control
same,T/C,[9],104 % of control
same,T/C,[6],105 % of control
same,T/C,[10],118 % of control
same,T/C,[7],98 % of control
CC(=O)c1cccc(OC(=O)Oc2cccc(C(C)=O)c2)c1,T/C,"endpoint: mean survival time, dose: 100.0 mg/kg/injection, schedule: Q01DX001 (ip), vehicle: carboxymethylcellulose (CMC)",95 % of control
same,T/C,[1],90 % of control
same,T/C,"endpoint: mean survival time, dose: 400.0 mg/kg/injection, schedule: Q01DX001 (ip), vehicle: carboxymethylcellulose (CMC)",95 % of control
CCCCN(CCCC)c1ccc(/C=C/c2ccncc2)cc1,T/C,[8],95 % of control
same,T/C,[5],93 % of control
same,T/C,[9],101 % of control
same,T/C,[6],101 % of control
same,T/C,[10],96 % of control
same,T/C,[7],90 % of control
